The results in this text go back to ChEMBL document CHEMBL1201862, “PubChem BioAssay data set” (2004).

What is called GI50 is the concentration giving 50% growth inhibition.

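Assay format: 96-well plates, 48-hour exposure. GI50 = concentration required for 50% inhibition of growth.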 Active and inactive are the calls of the source. Cut-off read from the data, not from the text of the source: active = GI50 up to about 1.1 µM and inactive = higher.

What all share (experiment): DTP human tumour cell line panel, 48 h
The subject of test [1] is UACC-62.
Test [2] relates to HT-29.
In test [3] the test system is SK-MEL-5.
Test [4] relates to UACC-257.
In test [5] the test system is A498.
Test [6] relates to Malme-3M.
Test [7] relates to SK-MEL-28.
Test [8] deals with HOP-62.
Test [9] concerns SK-OV-3.
Test [10] deals with SF-539.
Test [11] has as its system SF-268.
Test [12] has as its system LOX IMVI.
The test system of test [13] is HCC 2998.
The subject of test [14] is PC-3.
Test [15] has as its system M14.
Test [16] concerns NCI-H226.
Test [17] has as its system MDA-N.
Test [18] has as its system ACHN.
Test [19] has as its system HL-60.
Test [20] has as its system SNB-19.

Regarding `COC(=O)C1=C(C(=O)OC)C2OC1c1cc3ccccc3cc12`, the GI50 was 14.5 µM (inactive) in test [1]; 6.3 µM (inactive) in test [2]; 16.9 µM (inactive) in test [3]; 6.32 µM (inactive) in [4]; 21.1 µM (inactive) in test [5]; 2.5 µM (inactive) in [6]. The GI50 in [7] was 2 µM (inactive); in test [8] it was 17.6 µM (inactive); in [9] it was 18.8 µM (inactive); in test [10], 6.27 µM (inactive); in test [11], 18.3 µM (inactive); in [12] it was 15.2 µM (inactive). Further, the GI50 is 6.34 µM (inactive) in test [13]; 15.2 µM (inactive) in test [14]; 2.1 µM (inactive) in test [15]; 5.15 µM (inactive) in test [16]; 6.62 µM (inactive) in test [17]; 1.63 µM (inactive) in test [18]. Besides, the GI50 in [19] is 0.0841 µM (active); in [20] it was 18.7 µM (inactive).

Turning to `CCOC(=O)CN1CC(C2=C(O)CN(CC(=O)OCC)C2=O)=CC1=O`, the GI50 in test [1], in test [2], in [3], in [4], in test [5] and in test [6] was > 100 µM (inactive) each time. The GI50 in test [7], in test [8], in test [9], in test [10], in [11] and in [12] was > 100 µM (inactive) in each case. Besides, the GI50 in test [13], in [14], in test [15], in test [16], in [17] and in [18] was > 100 µM (inactive) each time. Besides, the GI50 in test [19] and in [20] was > 100 µM (inactive) each time.

For `C[C@H](CCC1=NCCN1)[C@H]1CC[C@H]2[C@@H]3[C@H](O)C[C@@H]4C[C@H](O)CC[C@]4(C)[C@H]3CC[C@]12C`, the GI50 in test [1] was 11.4 µM (inactive); in test [2], 2.54 µM (inactive); in test [3], 11.8 µM (inactive); in test [4] it was 15 µM (inactive); in test [5], 13.3 µM (inactive); in test [6], 15.6 µM (inactive). The GI50 was 14.2 µM (inactive) in test [7]; 16.1 µM (inactive) in test [8]; 19.1 µM (inactive) in test [9]; 12.9 µM (inactive) in [10]; 13.2 µM (inactive) in test [11]; 10.3 µM (inactive) in [12]. The GI50 in test [13] was 15.2 µM (inactive); in [14] it was 8.85 µM (inactive); in test [15] it was 15.3 µM (inactive); in test [16], 15 µM (inactive); in test [17], 17.3 µM (inactive); in test [18], 16.4 µM (inactive). Moreover, the figures for the GI50 in test [19] and in test [20] were > 10 µM (inactive) and 13.4 µM (inactive), respectively.
